# In patent publication US20220356163A1, “SMALL MOLECULE INHIBITORS OF Id PROTEINS” (MEMORIAL SLOAN KETTERING CANCER CENTER, priority 2019, published 2022):
# Target: T1, ID1-E47 (Homo sapiens, UniProt P41134)
# T1 construct: host or cells: HCT116
# Assay: Immunoprecipitation of endogenous ID1 and E47 in HCT116 cells
# Assay type: cell-based
# Conditions: 60 μM, one hour
# Description: Immunoprecipitation. Cells were lysed in NP40 lysis buffer (50 mM Tris-HCl, pH 7.5, 150 mM NaCl, 1 mM EDTA, 1% NP40, 1.5 mM Na3VO4, 50 mM sodium fluoride, 10 mM sodium pyrophosphate, 10 mM P-glycerolphosphate and EDTA free protease inhibitor cocktail (Roche)) or RIPA buffer (50 mM Tris-HCl, pH 7.5, 150 mM NaCl, 1 mM EDTA, 1% NP40, 0.5% Sodium Deoxycholate, 0.1% Sodium dodecyl sulfate, 1.5 mM Na3VO4, 50 mM sodium fluoride, 10 mM sodium pyrophosphate, 10 mM P-glycerolphosphate and EDTA free protease inhibitor cocktail (Roche)). Lysates were cleared by centrifuge at 15,000 rpm for 15 minutes at 4° C. For immunoprecipitation, cell lysates were incubated with primary antibody (FLAG M2 affinity gel, Sigma, F2426; ID1 (C-20), Santa Cruz, sc-488; E2A (N-649), Santa Cruz, sc-763) and protein G/A beads (Santa Cruz, sc-2003) at 4° C. overnight. Beads were washed with lysis buffer four times and eluted in 2×SDS sample buffer. Protein samples were separated by SDS-PAGE and transferred to a polyvinylidene fluoride (PVDF) membrane. Membranes were blocked in TBS containing 5% non-fat milk and 0.1% Tween20, and probed with primary antibodies. […]
# T1 sequence (P41134 whole entry): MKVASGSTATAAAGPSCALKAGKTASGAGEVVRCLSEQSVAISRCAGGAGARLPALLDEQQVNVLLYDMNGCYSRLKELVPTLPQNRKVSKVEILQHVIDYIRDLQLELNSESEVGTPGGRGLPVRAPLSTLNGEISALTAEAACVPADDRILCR
structure (smiles),measurement,value
"CCC(=O)N(CCC(c1ccc2c(c1)OCO2)c1ccccc1OC)Cc1ccccc1 (racemic) [AGX51, N-(3-(benzo[d][1,3]dioxol-5-yl)-3-(2-methoxyphenyl)propyl)-N-benzylpropionamide]",co-precipitated ID1/E47 proteins,markedly reduced the levels of the co-precipitated proteins
